Patent EP2201949A1 (World Trade Import-Export, WTIE A.G., priority 2007, dated 2009)

Key:
[1] = system: gout arthritis; type: in vivo, female Wistar rats; settings: for Global anti-inflammatory and analgesic activity expressed in CT AUC: through 5 hours of assessment; for effect of used dose on walking capability / relaxation of the animals: rat, in vivo
Excerpt: PIFIR experimental model is a preclinical model wherein gout arthritis is possible to be determined in a rodent and the anti-inflammatory and analgesic efficacy of several drugs in animals with this alteration is compared. This experimental model has some important advantages regarding other preclinical methodologies: a) an alteration which clinically affects to humans is established in the rodent: gout type arthritis; b) temporary course of anti-inflammatory and analgesic effect may be determined along […] in the same experimental subject, without producing rodent conditioning factor or learning, being this a significant disadvantage in other experimental models; c) less test drug is consumed compared with other experimental models; d) anti-inflammatory and analgesic effect assessment is performed by computer and not depending on sometimes subjective observations.
Experiments were performed by using female Wistar rats having a weight of about 180 to 200 g. Animals were kept in a room with alternate light/darkness cycles. Food was withdrawn from rats twelve hours before experimentation, with water ad-libitum. All experiments were carried out during light time, the animals being used only once.
Animals were anesthesized in a glass desiccator saturated with […]. Gout arthritis was induced by applying a 0.05 ml intra-articular uric acid injection suspended in mineral oil in the right anterior limb, exactly on the femoral-tibio-rotular joint. A 1 ml glass syringe was used for intra-articular injection with a No. 22 4 mm long needle. An electrode was fixed immediately later in every anterior leg between the plantar calluses. Rats were left to recover from anesthesia and they were enclosed in a 30 cm diameter stainless steel rotary cylinder. Cylinder was rotated at 4 rpm, forcing to the rats to walk during 2 min every half hour, during 5 hours after total dysfunction.
Contact time was the measured variable at every anterior leg from the rats in the cylinder. When electrode is in contact with the cylinder a circuit is closed and the contact time ratio between injured to uninjured legs was registered in a computer.
Temporary courses for every treatment were determined during 5 continuous hours, using a "n" of 6 rats per treatment.

[2] = cited from earlier work
[3] = each compound 177.8 mg/kg, alone or combined
[4] = after being orally administered

Row | SMILES | Global anti-inflammatory and analgesic activity expressed in CT AUC [1, 3] [ua] | time of maximum effect after delivery ([1]; each compound 177.8 mg/kg, single dose, alone or combined, CT over 5 hours) [h] | Maximum effect (anti-inflammatory and analgesic effect) ([1]; each compound 177.8 mg/kg, single dose, alone or combined, temporary course (CT) over 5 hours, n = 6 rats) [%] | effect of used dose on walking capability / relaxation of the animals [1] | beginning of pharmacological action [2, 4] [minutes] | total therapeutic action duration [2, 4] | half-life ([2]; in vivo)
1 | C[C@H]1C[C@H]2[C@@H]3CCC4=CC(=O)C=C[C@]4(C)[C@@]3(F)[C@@H](O)C[C@]2(C)[C@@]1(O)C(=O)CO [Betamethasone] | 31.6 ± 10.8 | 4.5 | 24.0 ± 11.9 | did not affect the walking rat capability |  |  | 
2 | COc1ccccc1OCC(O)COC(N)=O (stereo not drawn) [Methocarbamol] | 48.8 ± 21.0 |  |  | slight relaxation effect | ≤ 30 | about 24 hours | about 14 hours
